Reference: BindingDB's records for doi:10.1021/jm900517t

Columns and labels:
Assay in all cases: HCV RNA-Dependent RNA Polymerase Assay (IC50)
[1] = target: Genome polyprotein (Hepatitis C virus genotype 2b (isolate HC-J8), UniProt P26661)
[2] = target: Genome polyprotein (Hepatitis C virus genotype 1b (isolate BK), UniProt P26663); details: pH 7.5; 23 °C
[3] = target: T1, Genome polyprotein [2420-2989,R2920E,R2963Q] (Hepatitis C virus genotype 1b (isolate BK), UniProt P26663, R2920E/R2963Q); details: pH 7.5; 23 °C
T1 construct: 2420-2989
T1 sequence (P26663 2420-2997, looked up, stated change not applied): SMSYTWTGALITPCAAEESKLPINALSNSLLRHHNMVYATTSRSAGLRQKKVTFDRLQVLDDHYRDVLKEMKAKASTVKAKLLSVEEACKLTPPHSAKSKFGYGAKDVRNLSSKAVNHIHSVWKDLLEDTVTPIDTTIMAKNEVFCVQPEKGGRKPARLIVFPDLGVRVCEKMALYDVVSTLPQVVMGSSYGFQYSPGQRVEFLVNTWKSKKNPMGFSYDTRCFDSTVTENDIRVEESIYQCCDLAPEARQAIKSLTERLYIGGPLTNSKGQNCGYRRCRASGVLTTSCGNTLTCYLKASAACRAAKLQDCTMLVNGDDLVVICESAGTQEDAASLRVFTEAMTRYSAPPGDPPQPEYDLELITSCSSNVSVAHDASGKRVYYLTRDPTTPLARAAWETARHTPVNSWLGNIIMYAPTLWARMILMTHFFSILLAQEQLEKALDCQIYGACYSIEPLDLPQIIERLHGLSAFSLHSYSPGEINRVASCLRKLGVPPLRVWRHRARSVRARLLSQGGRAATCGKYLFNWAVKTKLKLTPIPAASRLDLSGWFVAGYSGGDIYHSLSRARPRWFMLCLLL

[4] = target: T2, Genome polyprotein [2420-2989,M2842K,R2963Q] (Hepatitis C virus genotype 1b (isolate BK), UniProt P26663, M2842K/R2963Q); details: pH 7.5; 23 °C
T2 construct: 2420-2989
T2 sequence (P26663 2420-2997, looked up, stated change not applied): as above

Genome polyprotein (Hepatitis C virus genotype 2b (isolate HC-J8), UniProt P26661), sequence (P26661 2443-3033 limits assumed): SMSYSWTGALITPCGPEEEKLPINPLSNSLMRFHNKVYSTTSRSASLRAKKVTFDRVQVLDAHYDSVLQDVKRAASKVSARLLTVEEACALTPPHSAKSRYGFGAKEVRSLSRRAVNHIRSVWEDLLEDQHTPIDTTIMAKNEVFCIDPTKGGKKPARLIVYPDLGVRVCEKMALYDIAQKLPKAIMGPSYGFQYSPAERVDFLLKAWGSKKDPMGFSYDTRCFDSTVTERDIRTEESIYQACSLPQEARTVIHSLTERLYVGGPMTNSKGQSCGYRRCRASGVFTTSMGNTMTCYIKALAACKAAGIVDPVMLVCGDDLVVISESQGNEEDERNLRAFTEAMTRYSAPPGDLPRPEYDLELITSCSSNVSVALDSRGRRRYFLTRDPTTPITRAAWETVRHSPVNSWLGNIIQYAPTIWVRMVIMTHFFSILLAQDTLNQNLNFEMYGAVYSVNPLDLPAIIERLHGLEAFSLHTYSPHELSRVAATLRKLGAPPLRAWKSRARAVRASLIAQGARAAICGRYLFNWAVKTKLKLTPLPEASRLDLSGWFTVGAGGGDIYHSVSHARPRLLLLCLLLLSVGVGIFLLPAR
Genome polyprotein (Hepatitis C virus genotype 1b (isolate BK), UniProt P26663), sequence (P26663 2420-3010 limits assumed): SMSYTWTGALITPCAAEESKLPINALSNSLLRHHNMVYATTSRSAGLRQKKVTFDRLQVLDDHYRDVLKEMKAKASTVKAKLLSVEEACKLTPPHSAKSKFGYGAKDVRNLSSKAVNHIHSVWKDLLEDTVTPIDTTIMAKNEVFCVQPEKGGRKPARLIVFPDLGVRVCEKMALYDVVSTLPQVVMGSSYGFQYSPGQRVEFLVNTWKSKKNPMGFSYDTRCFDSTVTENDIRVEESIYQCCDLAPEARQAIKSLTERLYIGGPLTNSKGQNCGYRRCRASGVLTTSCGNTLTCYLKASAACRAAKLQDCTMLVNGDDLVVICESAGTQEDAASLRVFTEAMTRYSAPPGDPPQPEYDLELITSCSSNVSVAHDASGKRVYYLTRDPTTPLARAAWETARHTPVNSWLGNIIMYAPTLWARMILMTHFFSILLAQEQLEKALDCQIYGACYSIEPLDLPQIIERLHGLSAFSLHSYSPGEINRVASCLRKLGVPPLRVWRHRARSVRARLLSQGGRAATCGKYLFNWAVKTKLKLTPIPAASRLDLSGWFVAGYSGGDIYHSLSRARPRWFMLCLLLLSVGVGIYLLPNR

IC50 [1] [µM]	IC50 [2] [µM]	SMILES	IC50 [3] [µM]	IC50 [4] [µM]
> 50	–	O=C1c2cccc3c(NCCO)ccc(c23)C(=O)N1c1cccc(F)c1 [1H-benzo[de]isoquinoline-1,3(2H)-dione, 13]	–	–
> 50	> 50	O=C1c2cccc3cccc(c23)C(=O)N1c1cccc(Br)c1 [1H-benzo[de]isoquinoline-1,3(2H)-dione, 5]	–	–

Continued, compound first:

SMILES	IC50 [1] [µM]	IC50 [2] [µM]	IC50 [3] [µM]	IC50 [4] [µM]
O=C1c2cccc3c(NCCO)ccc(c23)C(=O)N1c1ccccc1 [1H-benzo[de]isoquinoline-1,3(2H)-dione, 4]	> 50	–	–	–
NS(=O)(=O)c1cccc(N2C(=O)c3cccc4c(NCCO)ccc(c34)C2=O)c1 [1H-benzo[de]isoquinoline-1,3(2H)-dione, 14]	> 50	–	–	–
OCCNc1ccc2c3c(cccc13)CN(c1cccc(Br)c1)C2 [benzo[de]isoquinoline, 11]	> 50	> 50	–	–
CC(C)N(c1cc(-c2ccccc2)sc1C(=O)O)C(=O)[C@H]1CC[C@H](C)CC1 [thiophene scaffold, 21]	> 10	–	0.1	> 0.5
